According to patent US20250270227A1, “CAMPTOTHECIN DERIVATIVE, AND PHARMACEUTICAL COMPOSITION AND USE THEREOF” (SIMCERE ZAIMING PHARMACEUTICAL CO., LTD., priority 2021, published 2025):
pIC50: −log10 of the molar value. Read-outs that look alike come from different tables or passages of the source.

Assays:
Type in all cases: cell-based
[1] = tested on: Human colorectal cancer cell line HCT116; test: Test 1 of anti-proliferative activity against tumor cells (Cell-Titer Glo); conditions: for IC50: read-out: HCT116 Anti-proliferative activity IC50 (nM), HCT116 cells, cultured 3 days with compound, Cell-Titer Glo; for pIC50: read-out: HCT116 Anti-proliferative activity IC50, HCT116 cells, cultured 3 days with compound, Cell-Titer Glo
Method in brief: (§1)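 HCT116, SKBR3 and OVCAR3 cells seeded 24 h, then treated with 9-point 3-fold dilutions (final 0-300 nM); HCT116 incubated 3 days, SKBR3 and OVCAR3 5 days at 37° C, 5% CO2. Viability by Cell-Titer Glo luminescence, inhibition normalised to DMSO and no-cell wells, IC50 fitted.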

[2] = tested on: human breast cancer cell line SKBR3; test: as above; conditions: for IC50: read-out: SKBR3 Anti-proliferative activity IC50 (nM), SKBR3 cells, cultured 5 days with compound, Cell-Titer Glo; for pIC50: read-out: SKBR3 Anti-proliferative activity IC50, SKBR3 cells, cultured 5 days with compound, Cell-Titer Glo
Method in brief: as §1

[3] = tested on: human ovarian cancer cell line OVCAR3; test: as above; conditions: for pIC50: OVCAR3 cells, cultured 5 days with compound, Cell-Titer Glo, read-out: OVCAR3 Anti-proliferative activity IC50
Method in brief: as §1

[4] = tested on: Human ovarian cancer cell line SK-OV-3; test: Test 2 of anti-proliferative activity against tumor cells (Cell-Titer Glo); conditions: for pIC50: SK-OV-3 cells, 5 days, Cell-Titer Glo, read-out: SK-OV-3 Anti-proliferative activity IC50; for IC50: read-out: SK-OV-3 Anti-proliferative activity IC50 (nM)
Experimental: (§2) Cell culture: SK-OV-3 cells were cultured in McCoy's 5a medium containing 10% fetal bovine serum+1% penicillin-streptomycin, PA-1 cells were cultured in MEM medium containing 10% fetal bovine serum+1% MEM NEAA+1% sodium pyruvate+1% penicillin-streptomycin, NCI-H82 cells and MDA-MB-231 cells were cultured in 1640 medium containing 10% fetal bovine serum+1% penicillin-streptomycin, A549 cells were cultured in DMEM medium containing 10% fetal bovine serum+1% penicillin-streptomycin, all under conditions of 37° C. and 5% CO2. Cells in logarithmic growth phase were suitable for the experiment.
(§3) Detection of cell proliferation activity: The inhibitory activity of the compounds on the proliferation of the five cell lines SK-OV-3, PA-1, NCI-H82, MDA-MB-231 and A549 was detected using Cell-Titer Glo reagent. SK-OV-3 cell (1000 cells per well), PA-1 cells (800 cells per well), NCI-H82 cells (5000 cells per well), MDA-MB-231 cells (3000 cells per well) and A549 cells (400 cells per well) were seeded in 96-well plates and cultured at 37° C. and 5% CO2 for 24 h. The compound to be tested was dissolved in DMSO to a concentration of 1 mM, then subjected to gradient dilution with DMSO and corresponding medium, and transferred to 96-well cell plates to a final concentration of 300 nM (initial concentration), with 3-fold dilution and a total of 9 concentration points. The cells were cultured at 37° C. and 5% CO2 for additional 5 days. The cell viability was detected by adding Cell-Titer Glo reagent.
(§4) Additionally, a negative control group and a positive control group were provided as Bottom and Top, respectively. In the negative control group, the cells were not added, only the same volume of medium was added, and other operations were consistent with those in the experimental group; in the positive control group, the test compound was not added, only the same volume of DMSO was added, and other operations were consistent with those in the experimental group.
(§5) Data analysis: The % compound inhibition was calculated, and fitting was performed to obtain IC50 of the compound.
(§6) % Compound inhibition=1−100%*(Signal−Bottom)/(Top−Bottom).
(§7) Signal represents the signal value of the experimental group, Bottom represents the average signal value of the negative control group, and Top represents the average signal value of the positive control group.

[5] = tested on: human breast cancer cell line MDA-MB-231; test: as above; conditions: Homo sapiens, MDA-MB-231, 120 h; for IC50: read-out: MDA-MB-231 Anti-proliferative activity IC50 (nM); for pIC50: MDA-MB-231 cells, 5 days, Cell-Titer Glo, read-out: MDA-MB-231 Anti-proliferative activity IC50
Experimental: as §2, §3, §4, §5, §6, §7

[6] = tested on: human non-small cell lung cancer cell line A549; test: as above; conditions: for IC50: read-out: A549 Anti-proliferative activity IC50 (nM), A549 cells, 5 days, Cell-Titer Glo; for pIC50: read-out: A549 Anti-proliferative activity IC50, A549 cells, 5 days, Cell-Titer Glo
Experimental: as §2, §3, §4, §5, §6, §7

[7] = tested on: human ovarian cancer cell line PA-1; test: as above; conditions: for IC50: read-out: PA-1 Anti-proliferative activity IC50 (nM), PA-1 cells, 5 days, Cell-Titer Glo; for pIC50: read-out: PA-1 Anti-proliferative activity IC50, PA-1 cells, 5 days, Cell-Titer Glo
Experimental: as §2, §3, §4, §5, §6, §7

[8] = tested on: human small cell lung cancer cell line NCI-H82; test: as above; conditions: read-out: NCI-H82 Anti-proliferative activity IC50, NCI-H82 cells, 5 days, Cell-Titer Glo
Experimental: as §2, §3, §4, §5, §6, §7

CC[C@@]1(O)C(=O)OCc2c1cc1n(c2=O)Cc2c-1nc1cc3c(cc1c2CNC(=O)C(O)C1CC1)OCO3 (single isomer, unassigned) [Compound 14-P1]
IC50 ([1]; Homo sapiens, HCT-116, 72 h): 9.8 nM | IC50 ([2]; Homo sapiens, SK-BR-3, 120 h): 2.1 nM | pIC50 ([3]; Homo sapiens, OVCAR-3, 120 h): 9.22 | pIC50 ([4]; Homo sapiens, SK-OV-3, 120 h): 8.66 | IC50 [5]: 7.5 nM | IC50 ([6]; Homo sapiens, A549, 120 h): 10.2 nM | IC50 ([7]; Homo sapiens, PA-1, 120 h): 0.7 nM | pIC50 [8]: 8.66

CC[C@@]1(O)C(=O)OCc2c1cc1n(c2=O)Cc2c-1nc1cc3c(cc1c2CNC(=O)C(O)C1CC1)OCO3 (single isomer, unassigned) [Compound 14-P2]
pIC50 [1]: 7.91 | pIC50 [2]: 8.46 | pIC50 [3]: 9.00 | pIC50 [4]: 8.49 | pIC50 [5]: 8.06 | pIC50 [6]: 7.84 | pIC50 [7]: 9.05 | pIC50 [8]: 8.33

CC[C@@]1(O)C(=O)OCc2c1cc1n(c2=O)Cc2c-1nc1cc3c(c(F)c1c2CNC(=O)[C@@H](O)C1CC1)OCO3 (single isomer, unassigned) [Compound 37-P1]
pIC50 ([1]; Homo sapiens, HCT-116, 72 h): 8.32 | pIC50 ([2]; Homo sapiens, SK-BR-3, 120 h): 8.68 | pIC50 ([3]; Homo sapiens, OVCAR-3, 120 h): 9.30 | pIC50 ([4]; Homo sapiens, SK-OV-3, 120 h): 8.68 | pIC50 [5]: 7.88 | pIC50 ([6]; Homo sapiens, A549, 120 h): 8.04 | pIC50 ([7]; Homo sapiens, PA-1, 120 h): 9.05

CC[C@@]1(O)C(=O)OCc2c1cc1n(c2=O)Cc2c-1nc1cc3c(cc1c2CNC(=O)C(O)C1CC1)OCO3 (stereo partly drawn) [Compound 14, 2-cyclopropyl-N-(((S)-7-ethyl-7-hydroxy-8,11-dioxo-7,8,11,13-tetrahydro-10H-[1,3]dioxolo[4,5-g]pyrano[3′,4′:6,7]indolizino[1,2-b]quinolin-14-yl)methyl)-2-hydroxyacetamide]
IC50 ([1]; Homo sapiens, HCT-116, 72 h): 8.4 nM | IC50 ([2]; Homo sapiens, SK-BR-3, 120 h): 2.2 nM | IC50 ([3]; Homo sapiens, OVCAR-3, 120 h, read-out: OVCAR3 Anti-proliferative activity IC50 (nM)): 0.9 nM | IC50 ([4]; Homo sapiens, SK-OV-3, 120 h): 3 nM | pIC50 [5]: 7.98 | IC50 ([6]; Homo sapiens, A549, 120 h): 9.7 nM | pIC50 ([7]; Homo sapiens, PA-1, 120 h): 9.00 | pIC50 ([8]; Homo sapiens, 120 h): 8.41

[2H]C1([2H])Oc2cc3nc4c(c(CNC(=O)C(O)C5CC5)c3cc2O1)Cn1c-4cc2c(c1=O)COC(=O)[C@]2(O)CC (stereo partly drawn) [Compound 39, 2-cyclopropyl-N-(((S)-7-ethyl-7-hydroxy-8,11-dioxo-7,8,11,13-tetrahydro-10H-[1,3]dioxolo[4,5-g]pyrano[3′,4′:6,7]indolizino[1,2-b]quinolin-14-yl-2,2-d2)methyl)-2-hydroxyacetamide]
pIC50 ([1]; Homo sapiens, HCT-116, 72 h): 8.02 | pIC50 ([2]; Homo sapiens, SK-BR-3, 120 h): 8.54 | pIC50 ([3]; Homo sapiens, OVCAR-3, 120 h): 9.00 | IC50 ([4]; Homo sapiens, SK-OV-3, 120 h): 2.6 nM | IC50 [5]: 26.4 nM | IC50 ([6]; Homo sapiens, A549, 120 h): 19.1 nM | IC50 ([7]; Homo sapiens, PA-1, 120 h): 1.5 nM
